The values that follow come from patent US8552208B2, “Analogs of tetramic acid” (University of Tennesseee Research Foundation, priority 2007, dated 2013).

Values after ≈ are worked out from the molar mass of the structure shown. Like-named read-outs stand apart in the source and are kept apart here.

Data set [1] concerns MRSA (ATCC 35391) biofilm. Put plainly: Calgary Biofilm Device anti-biofilm activity. It is filed as cell-based, Staphylococcus aureus. The settings on record: Staphylococcus aureus, MRSA biofilm, triplicate runs listed singly; for MBC: read-out: MBEC = Minimum Biofilm Eradication Concentration; for MIC: read-out: MBIC = Minimum Biofilm Inhibitory Concentration.
Data set [2] concerns Enterococcus faecalis ATCC 33186. Put plainly: Antibacterial activity assay (MIC, broth dilution). The format is cell-based. The conditions noted are these: ATCC33186; Enterococcus faecalis ATCC 33186; read-out: MIC, EF.
Data set [3] deals with Mycobacterium tuberculosis H37 Rv. Kind of data set: Antibacterial activity assay (MIC, broth dilution). It is filed as cell-based. The settings on record: H37RV, 168 h; Mycobacterium tuberculosis H37 Rv; […]; read-out: MIC, TB.
Data set [4] relates to Methicillin Resistant Staphylococcus aureus ATCC 33591. Put plainly: Antibacterial activity assay (MIC, broth dilution). The format is cell-based. The settings on record: ATCC 33591 / MRSA, read-out: MIC, MRSA.
Data set [5] concerns MSSA (ATCC 25293) biofilm. Put plainly: Calgary Biofilm Device anti-biofilm activity. It is filed as cell-based. The settings on record: Staphylococcus aureus, MSSA biofilm, triplicate runs listed singly; for MBC: read-out: MBEC = Minimum Biofilm Eradication Concentration; for MIC: read-out: MBIC = Minimum Biofilm Inhibitory Concentration.
The subject of data set [6] is Propionibacterium acnes ATCC 6919. Kind of data set: Antibacterial activity assay (MIC, broth dilution). It is filed as cell-based. The conditions noted are these: Cutibacterium acnes, ATCC6919; Propionibacterium acnes ATCC 6919; read-out: MIC, PA. A general note: Broth dilution looks for growth in wells or tubes with falling amounts of substance.
The test system of data set [7] is Methicillin sensitive Staphylococcus aureus 8325 ATCC 35556. Put plainly: Antibacterial activity assay (MIC, broth dilution). It is filed as cell-based. The settings on record: ATCC 35556 / MSSA; Methicillin sensitive Staphylococcus aureus 8325 ATCC 35556; read-out: MIC, MSSA.
For data set [8], the system named is Bacillus subtilis ATCC 23857. Put plainly: Antibacterial activity assay (MIC, broth dilution). The format is cell-based. The settings on record: ATCC23857; Bacillus subtilis ATCC 23857; read-out: MIC, BS.
The subject of data set [9] is Streptococcus pyogenes ATCC 700294. Kind of data set: Antibacterial activity assay (MIC, broth dilution). The format is cell-based. The conditions noted are these: ATCC700294; Streptococcus pyogenes ATCC 700294; read-out: MIC, SP.
In data set [10] the test system is Bacillus anthracis Sterne 34F2. Kind of data set: microbe, parasite or virus in culture. It is filed as cell-based. The settings on record: STERNE34F2, read-out: MIC, BA.
For data set [11], the system named is S. epidermidis (RP62A) biofilm. Kind of data set: Calgary Biofilm Device anti-biofilm activity. It is filed as cell-based. The conditions noted are these: Staphylococcus epidermidis, S. epidermidis biofilm, triplicate runs listed singly; for MBC: read-out: MBEC = Minimum Biofilm Eradication Concentration; for MIC: read-out: MBIC = Minimum Biofilm Inhibitory Concentration.

The subject of data set [12] is clinical isolates of MRSA (methicillin resistant S. aureus). The format is cell-based.
Data set [13] concerns Streptococcus pneumoniae DAW30EC. Put plainly: Antibacterial activity assay (MIC, broth dilution). It is filed as cell-based. The settings on record: Streptococcus pneumoniae DAW30EC; read-out: MIC, SPn.
Data set [14] relates to Vero monkey kidney cell line (ATCC, CCL-81). Kind of data set: Cytotoxicity assay (MTT). The format is cell-based. The conditions noted are these: IC50 divided by MIC against S. aureus 8325. The procedure: (§1) Cytotoxicity assays of drugs of Formula I of Example 3 and of Formula II of Example 5 were performed using the Vero monkey kidney cell line (ATCC, CCL-81). Vero cells were grown in tissue culture flasks in Dulbecco's Modified Eagle's Medium (ATCC) supplemented with 10% fetal bovine serum and maintained in a humidified incubator (37° C., 5% CO2). Cells were removed with a cell scraper, collected by centrifugation and then suspended in fresh medium at ˜10^6 cells/mL. The cell suspensions were dispensed into 96-well microtiter plates (100 μl/well) and incubated for 18 hours at 37° C. before being used for cytotoxicity assays. Test compounds were subsequently added at concentrations ranging from 400-0.024 μg/mL and 0.1% vol/vol of Triton-X 100, which causes 100% death of cells, was included as a control. After incubating cells and compounds for 72 hours in humid air (37° C., 5% CO2) the cytopathic effects of compounds were determined using the MTT Cell Proliferation Assay (ATCC, Cat No. 30-1010K). The MTT solution reagent (10 μl) was added to each well and plates incubated at 37° C. until sufficient purple color development occurred in cells (3 hours). After detergent cell lysis, the purple formazan product was measured at 570 nm in a Synergy HT Biotek microplate reader. IC50 data was obtained from dose response curves plotted from percentage activity versus log10 concentration using Graphpad prism 5.

The nature of the next data set: Cytotoxicity assay (MTT). It is filed as cell-based, monkey. The settings on record: monkey, Vero cells, 72 hours, MTT, read-out: IC50 (Cytotoxicity): Concentration which reduces viability of Vero kidney cells by 50%. The method, then: as §1
For data set [15], the system named is clinical isolates of MSSA (methicillin sensitive S. aureus). The format is cell-based.
The test system of data set [16] is methicillin-sensitive S. aureus ATCC 29213. Put plainly: Superficial skin infection model in mice. The format is in vivo, Balb/c mice. The settings on record: 2% ointment, topical, twice daily for three days; bacteria in lesions on day 5; placebo 8.15 +/− 0.37. The method, then: Compounds of the invention were tested for the ability to treat skin infections utilizing an established animal model of skin infection. The superficial skin infection model used in this study was previously developed by Kugelberg et al, “Establishment of a Superficial Skin Infection Model in Mice using Staphylococcus aureus and Streptococcus pyogenes”, Antimicrob. Agents Chemother., 49(8):3435-3441 (2005).
Superficial infections in Balb/c mice (male) were caused by first removing hair from the backs of mice with an electric shaver, followed by dry shaving with a razor and tape stripping with Tensoplast® (BSN Medical Inc., Charlotte, N.C.) adhesive bandage to remove the epidermis, followed by infection with a 5 μl bacterial suspension containing about 10^7 bacterial cells of methicillin-sensitive S. aureus ATCC 29213, a strain from a previous isolate from a human wound infection and used in other murine infection studies. After 4 hours of infection, treatment was started by administering 45-50 mg of ointment containing (i) vehicle hydrophilic petrolatum (placebo) (ii) 2% w/w mupirocin ointment (Bactroban®, GlaxoSmithKline plc., United Kingdom) in vehicle or (iii) 2% tetramic acid analogue of the invention (13b) in vehicle, (iv) 10% tetramic acid analogue of the invention (13b) in vehicle, (v) 2% tetramic acid analogue of the invention (13l) in vehicle, or (vi) 10% tetramic acid analogue of the invention (13l) in vehicle. Treatment was continued for three days with drug application twice daily at 8 hour intervals. On day 5, mice were sacrificed and the numbers of bacteria in lesions were enumerated.
This conclusion stems from statistical analysis of the resulting means by one way ANOVA followed by Tukey's test at P<0.01 with Placebo as the control group. Therefore, the tetramic acid analogues of the invention have the potential to be used clinically for the treatment of skin infections, such as those caused by Staphylococcus aureus.

Setting [17] is: Vero monkey kidney cells (ATCC CCL-81).

For `C/C(O)=C1\C(=O)[C@H](CC(C)C)N(Cc2ccc(-c3ccccc3)cc2)C1=O` [Compound 13k, (S,Z)-1-(biphenyl-4-ylmethyl)-3-(1-hydroxyethylidene)-5-isobutylpyrrolidine-2,4-dione], the MBC in data set [1] stood at 100 µg/mL (≈ 275 µM); in data set [5], 100 µg/mL (≈ 275 µM); in [11], 200 µg/mL (≈ 550 µM). The MIC amounted to 0.8 µg/mL (≈ 2.2 µM) in data set [1]; 0.8 µg/mL (≈ 2.2 µM) in data set [2]; 50 µg/mL (≈ 138 µM) in [3]; 0.8 µg/mL (≈ 2.2 µM) in [4]; 3.12 µg/mL (≈ 8.58 µM) in data set [5]; 0.2 µg/mL (≈ 0.55 µM) in data set [6]. The MIC in data set [7] is < 0.1 µg/mL; in data set [8] it was 0.4 µg/mL (≈ 1.1 µM); in [9] it was 25 µg/mL (≈ 68.8 µM); in data set [10], 0.4 µg/mL (≈ 1.1 µM); in data set [11], 1.6 µg/mL (≈ 4.4 µM); in data set [13], 12.5 µg/mL (≈ 34.4 µM). The “Antibiotic MIC” value in [12] (isolate MRSA-1) was determined as 1.6 µg/mL; in data set [12] (isolate MRSA-2), 1.6 µg/mL; in data set [12] (isolate MRSA-3), 1.6 µg/mL; in data set [12] (isolate MRSA-4), 1.6 µg/mL; in data set [12] (isolate MRSA-5), 1.6 µg/mL; in data set [12] (isolate MRSA-6), 0.8 µg/mL. For the same compound, the “Antibiotic MIC” value stood at 0.8 µg/mL in data set [12] (isolate MRSA-7); 0.4 µg/mL in [12] (isolate MRSA-8); 1.6 µg/mL in data set [12] (isolate MRSA-9); 0.8 µg/mL in data set [12] (isolate MRSA-10); 1.6 µg/mL in [15] (isolate MSSA-11); 0.8 µg/mL in data set [15] (isolate MSSA-12). The “Antibiotic MIC” value was determined as 0.8 µg/mL in [15] (isolate MSSA-13); 0.8 µg/mL in data set [15] (isolate MSSA-14); 0.4 µg/mL in data set [15] (isolate MSSA-15); 0.8 µg/mL in [15] (isolate MSSA-16); 0.8 µg/mL in data set [15] (isolate MSSA-17); 0.8 µg/mL in data set [15] (isolate MSSA-18). The “Antibiotic MIC” value in data set [15] (isolate MSSA-19) and in data set [15] (isolate MSSA-20) was 0.8 µg/mL throughout. For the same compound, the “IC50/MIC = Selectivity (therapeutic) index” value in data set [14] is listed as >197. Moreover, the IC50 at 72 h in “Cytotoxicity assay (MTT)” (setting [17]) was 19.7 µg/mL.
In the case of `CCCCCCCCCCN1C(=O)/C(=C(/C)O)C(=O)[C@@H]1C(C)C` [Compound 13i, (S,Z)-1-decyl-3-(1-hydroxyethylidene)-5-isopropylpyrrolidine-2,4-dione], the MBC is 25 µg/mL (≈ 77.3 µM) in data set [1], 100 µg/mL (≈ 309 µM) in [5] and 25 µg/mL (≈ 77.3 µM) in data set [11]. The MIC in [1] was determined as 0.8 µg/mL (≈ 2.47 µM); in [2] it was 0.8 µg/mL (≈ 2.47 µM); in data set [3] it was 12.5 µg/mL (≈ 38.6 µM); in data set [4], 0.8 µg/mL (≈ 2.47 µM); in [5], 0.8 µg/mL (≈ 2.47 µM); in data set [6], 0.4 µg/mL (≈ 1.24 µM). The MIC in data set [7] came out at 0.8 µg/mL (≈ 2.47 µM); in [8], 0.4 µg/mL (≈ 1.24 µM); in data set [9] it was 25 µg/mL (≈ 77.3 µM); in data set [10], 0.8 µg/mL (≈ 2.47 µM); in data set [11], 0.8 µg/mL (≈ 2.47 µM); in data set [13], 6.25 µg/mL (≈ 19.3 µM). Besides, in [14], the “IC50/MIC = Selectivity (therapeutic) index” value is on record as 8.8. Moreover, in the data set “Cytotoxicity assay (MTT)” (setting [17]), the IC50 at 72 h is 7 µg/mL.
For the compound `CC(C)=CCCC(C)CCN1C(=O)/C(=C(/C)O)C(=O)[C@@H]1CC(C)C` (stereo partly drawn) [Compound 13m, (5S,Z)-1-(3,7-dimethyloct-6-enyl)-3-(1-hydroxyethylidene)-5-isobutylpyrrolidine-2,4-dione], the MBC in data set [1] was 50 µg/mL (≈ 149 µM); in data set [5] it was 200 µg/mL (≈ 596 µM); in [11], 200 µg/mL (≈ 596 µM). For the same compound, the MIC in data set [1] turned out to be 0.8 µg/mL (≈ 2.38 µM); in data set [2] it was 0.8 µg/mL (≈ 2.38 µM); in data set [3] it was 200 µg/mL (≈ 596 µM); in data set [4], 0.8 µg/mL (≈ 2.38 µM); in [5] it was 0.8 µg/mL (≈ 2.38 µM); in data set [6] it was 0.4 µg/mL (≈ 1.19 µM). Further, the MIC in data set [7] worked out at 0.4 µg/mL (≈ 1.19 µM); in data set [8], 0.8 µg/mL (≈ 2.38 µM); in [9], 25 µg/mL (≈ 74.5 µM); in data set [10] it was 0.4 µg/mL (≈ 1.19 µM); in [11], 0.4 µg/mL (≈ 1.19 µM); in data set [13] it was 3.25 µg/mL (≈ 9.69 µM). Moreover, in data set [14], the “IC50/MIC = Selectivity (therapeutic) index” value came out at 18.3. Moreover, the IC50 at 72 h in “Cytotoxicity assay (MTT)” is 7.3 µg/mL.
Regarding `C/C(=C\C(=O)OCCCCCCCCC(=O)O)C[C@@H]1OC[C@H](C[C@@H]2O[C@H]2[C@@H](C)[C@H](C)O)[C@@H](O)[C@H]1O` [Mupirocin, mupirocin, reference compound], the MBC in [1], in data set [5] and in data set [11] was > 400 µg/mL in each case. Besides, the MIC in data set [1], in data set [5] and in [11] was < 0.2 µg/mL each time. Also, the “Mean Bacterial Count (log10) +/− SD” value in [16] is on record as 5.95 +/− 0.92 log10.
